Drawing on PubChem BioAssay (NCI), this text covers GI50 and TGI for 17 compounds.

Structures are written as SMILES. Values joined by “and” are separate entries in the source; they are usually repeats but may differ in a detail not shown here. Equal values may be shown once.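 Compound exposure: 48 hours, 5 concentrations, 96-well plates. GI50 = concentration required for 50% inhibition of growth. TGI is the concentration that stops growth completely.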

The first assay relates to HS 578T breast. Nature of the assay: NCI anticancer screen, dose series, 48 h.
In the case of `Oc1cn(-c2ccc(Cl)cc2)nc1-c1n[nH]c(=S)n1C1CCCCC1`, the GI50 was 0.28 µM.
With `COc1ccc(Nc2c3ccccc3nc3occ(Cl)c23)cc1`, the GI50 was 0.0237 µM and the TGI worked out at 61.3 µM.
For `O=C(/C=C/c1cc(CN2CCOCC2)c(O)c2ncccc12)c1cc(CN2CCOCC2)c(O)c2ncccc12` the same measures were 0.0713 µM and > 100 µM.
The matching figures for `[Au+].[Au+].[Au+].[c-]1nccn1Cc1ccccc1.[c-]1nccn1Cc1ccccc1.[c-]1nccn1Cc1ccccc1`: 19.8 µM and 64 µM.
`Cn1cc(C2=C(c3cn(CCCCCN)c4ccccc34)C(=O)NC2=O)c2ccccc21`: the GI50 is 11.5 µM and the TGI was > 25 µM.
For `Cc1cc[c-]cc1.Fc1c[c-]c(-c2ccccn2)c(F)c1.[Pt+2].c1ccc(P(C[PH+](c2ccccc2)c2ccccc2)c2ccccc2)cc1` the same measures were 2.61 µM and 9.94 µM.
As to `COc1cc2ncn(-c3cc(OCCc4ccccc4)c(C(N)=O)s3)c2cc1OC`, the GI50 is > 16.1 µM and the TGI is > 25 µM.
For `CCCCC1(CN2CCOCC2)S/C(=N/c2nc(CC(=O)OCC)cs2)NC1=O` (configuration not stated) the same measures were 35.8 µM and > 100 µM.

A further assay deals with KM12 colon. The assay is described as follows: NCI anticancer screen, dose series, 48 h.
In the case of `COc1ccc2c(c1)C(C)Cc1c(ncnc1-n1c(C)nc3ccccc31)N2C` (configuration not stated), the GI50 was 2.59 µM and the TGI was determined as 17.8 µM.
Consider `COc1ccc2[nH]c3c4c(ccc3c2c1)C(=O)C=CC4=O`, for which the TGI is 49.1 µM.
The same measure, in the same setting: as for `COc1cc2c(cc1O)C1Cc3ccc(OC)c(O)c3C(C2)N1C` (configuration not stated), the figure is > 100 µM.
For `CCOC(=O)CNC(=O)c1ccccc1Nc1ccnc(C(F)(F)F)c1`, the GI50 was 30.2 µM and the TGI is > 86 µM.
Turning to `COc1ccc2c(c1)[C@@]13CCCC[C@H]1[C@@H](C2)N(C)CC3=O`, the TGI came to 33.6 µM.
In the case of `COc1cccc(/C(COc2ccc3c(c2)oc(=O)c2cc(OC)ccc23)=N/O)c1`, the GI50 was 3.86 µM and the TGI is > 100 µM.
As to `N=C(N)SCc1cccc(-c2nc3ccccc3c(=O)o2)c1`, the TGI was > 100 µM.
Regarding `COc1cc2c(c(OC)n1)[C@]1(O)[C@H](O)[C@H](CN(C)C)[C@@H](c3ccccc3)[C@]1(c1ccc(C#N)cc1)O2`, the GI50 is 0.0128 µM and < 0.01 µM; the TGI is 3.61 µM and 7.59 µM.
In the case of `C=CCSS/C=C/CS(=O)CC=C` (configuration not stated), the TGI is > 100 µM.
Regarding `Oc1cn(-c2ccc(Cl)cc2)nc1-c1n[nH]c(=S)n1C1CCCCC1`, the GI50 was 1.04 µM and the TGI stood at 17.5 µM.
The matching figures for `COc1ccc(Nc2c3ccccc3nc3occ(Cl)c23)cc1`: < 0.01 µM and 4.1 µM.
For `O=C(/C=C/c1cc(CN2CCOCC2)c(O)c2ncccc12)c1cc(CN2CCOCC2)c(O)c2ncccc12` the same measures were 0.0437 µM and > 100 µM.
For `[Au+].[Au+].[Au+].[c-]1nccn1Cc1ccccc1.[c-]1nccn1Cc1ccccc1.[c-]1nccn1Cc1ccccc1` the same measures were 7.75 µM and 39.9 µM.
In the case of `Cn1cc(C2=C(c3cn(CCCCCN)c4ccccc34)C(=O)NC2=O)c2ccccc21`, the GI50 was 17.8 µM and the TGI is > 25 µM.
The matching figures for `Cc1cc[c-]cc1.Fc1c[c-]c(-c2ccccn2)c(F)c1.[Pt+2].c1ccc(P(C[PH+](c2ccccc2)c2ccccc2)c2ccccc2)cc1`: 2.4 µM and 9.23 µM.
For `COc1cc2ncn(-c3cc(OCCc4ccccc4)c(C(N)=O)s3)c2cc1OC` the same measures were 18.9 µM and > 25 µM.
For `CCCCC1(CN2CCOCC2)S/C(=N/c2nc(CC(=O)OCC)cs2)NC1=O` (configuration not stated) the same measures were 27.7 µM and > 100 µM.

Another assay deals with MALME-3M melanoma. The assay is described as follows: NCI anticancer screen, dose series, 48 h.
Take `COc1ccc2c(c1)C(C)Cc1c(ncnc1-n1c(C)nc3ccccc31)N2C` (configuration not stated): the GI50 is 11.3 µM and the TGI was determined as 25.2 µM.
`COc1ccc2[nH]c3c4c(ccc3c2c1)C(=O)C=CC4=O` showed a TGI of 17.4 µM.
The same measure, in the same setting: as for `COc1cc2c(cc1O)C1Cc3ccc(OC)c(O)c3C(C2)N1C` (configuration not stated), the figure is > 100 µM.
Turning to `CCOC(=O)CNC(=O)c1ccccc1Nc1ccnc(C(F)(F)F)c1`, the GI50 is 34.1 µM and the TGI is > 88.8 µM.
Take `COc1ccc2c(c1)[C@@]13CCCC[C@H]1[C@@H](C2)N(C)CC3=O`: the TGI came out at 33.1 µM.
In the case of `COc1cccc(/C(COc2ccc3c(c2)oc(=O)c2cc(OC)ccc23)=N/O)c1`, the GI50 was > 100 µM and the TGI was > 100 µM.
In the case of `N=C(N)SCc1cccc(-c2nc3ccccc3c(=O)o2)c1`, the TGI was > 100 µM.
In the case of `COc1cc2c(c(OC)n1)[C@]1(O)[C@H](O)[C@H](CN(C)C)[C@@H](c3ccccc3)[C@]1(c1ccc(C#N)cc1)O2`, the GI50 was 0.0194 µM and 0.019 µM; the TGI is 0.7 µM and 0.841 µM.
In the case of `C=CCSS/C=C/CS(=O)CC=C` (configuration not stated), the TGI was > 100 µM.
As to `Oc1cn(-c2ccc(Cl)cc2)nc1-c1n[nH]c(=S)n1C1CCCCC1`, the TGI was > 100 µM.
As to `COc1ccc(Nc2c3ccccc3nc3occ(Cl)c23)cc1`, the GI50 was 0.0124 µM and the TGI was determined as 14.7 µM.
The matching figures for `O=C(/C=C/c1cc(CN2CCOCC2)c(O)c2ncccc12)c1cc(CN2CCOCC2)c(O)c2ncccc12`: 0.145 µM and > 100 µM.
For `[Au+].[Au+].[Au+].[c-]1nccn1Cc1ccccc1.[c-]1nccn1Cc1ccccc1.[c-]1nccn1Cc1ccccc1` the same measures were 3.35 µM and 7.08 µM.
In the case of `Cn1cc(C2=C(c3cn(CCCCCN)c4ccccc34)C(=O)NC2=O)c2ccccc21`, the GI50 is 18.4 µM and the TGI is > 25 µM.
As for `Cc1cc[c-]cc1.Fc1c[c-]c(-c2ccccn2)c(F)c1.[Pt+2].c1ccc(P(C[PH+](c2ccccc2)c2ccccc2)c2ccccc2)cc1`, the GI50 was 1.7 µM and the TGI was determined as 5.06 µM.
On to `COc1cc2ncn(-c3cc(OCCc4ccccc4)c(C(N)=O)s3)c2cc1OC`, for which the GI50 was > 25 µM and the TGI was > 25 µM.
In the case of `CCCCC1(CN2CCOCC2)S/C(=N/c2nc(CC(=O)OCC)cs2)NC1=O` (configuration not stated), the GI50 is 25.4 µM and the TGI was > 100 µM.
